Consider 44 molecules from patent US9682141B2, “Combination of kinase inhibitors and uses thereof” (INTELLIKINE LLC, priority 2011, dated 2017).

Common to all, as to assay type: biochemical
One assay deals with PI3K α (Homo sapiens (Human), UniProt P42336). The assay can be described thus: PI 3-Kinase (human) HTRF assay, p110α/p85α. (TR-FRET usually uses a lanthanide donor and a delayed reading to cut background.)
For another assay, the target named is PI3K β (Homo sapiens (Human), UniProt P42338). The assay can be described thus: PI 3-Kinase (human) HTRF assay, p110β/p85α.
The next assay concerns the target PI3K δ (Homo sapiens (Human), UniProt O00329). The assay can be described thus: PI 3-Kinase (human) HTRF assay, p110δ/p85α.
A further assay concerns the target PI3K γ (Homo sapiens (Human), UniProt P48736). The assay can be described thus: PI 3-Kinase (human) HTRF assay, p110γ. The note with it: read-out: PI3K γ IC50.

Where only a bound is given, the exact number is not on record here.

PI3K γ, sequence (P48736 whole entry): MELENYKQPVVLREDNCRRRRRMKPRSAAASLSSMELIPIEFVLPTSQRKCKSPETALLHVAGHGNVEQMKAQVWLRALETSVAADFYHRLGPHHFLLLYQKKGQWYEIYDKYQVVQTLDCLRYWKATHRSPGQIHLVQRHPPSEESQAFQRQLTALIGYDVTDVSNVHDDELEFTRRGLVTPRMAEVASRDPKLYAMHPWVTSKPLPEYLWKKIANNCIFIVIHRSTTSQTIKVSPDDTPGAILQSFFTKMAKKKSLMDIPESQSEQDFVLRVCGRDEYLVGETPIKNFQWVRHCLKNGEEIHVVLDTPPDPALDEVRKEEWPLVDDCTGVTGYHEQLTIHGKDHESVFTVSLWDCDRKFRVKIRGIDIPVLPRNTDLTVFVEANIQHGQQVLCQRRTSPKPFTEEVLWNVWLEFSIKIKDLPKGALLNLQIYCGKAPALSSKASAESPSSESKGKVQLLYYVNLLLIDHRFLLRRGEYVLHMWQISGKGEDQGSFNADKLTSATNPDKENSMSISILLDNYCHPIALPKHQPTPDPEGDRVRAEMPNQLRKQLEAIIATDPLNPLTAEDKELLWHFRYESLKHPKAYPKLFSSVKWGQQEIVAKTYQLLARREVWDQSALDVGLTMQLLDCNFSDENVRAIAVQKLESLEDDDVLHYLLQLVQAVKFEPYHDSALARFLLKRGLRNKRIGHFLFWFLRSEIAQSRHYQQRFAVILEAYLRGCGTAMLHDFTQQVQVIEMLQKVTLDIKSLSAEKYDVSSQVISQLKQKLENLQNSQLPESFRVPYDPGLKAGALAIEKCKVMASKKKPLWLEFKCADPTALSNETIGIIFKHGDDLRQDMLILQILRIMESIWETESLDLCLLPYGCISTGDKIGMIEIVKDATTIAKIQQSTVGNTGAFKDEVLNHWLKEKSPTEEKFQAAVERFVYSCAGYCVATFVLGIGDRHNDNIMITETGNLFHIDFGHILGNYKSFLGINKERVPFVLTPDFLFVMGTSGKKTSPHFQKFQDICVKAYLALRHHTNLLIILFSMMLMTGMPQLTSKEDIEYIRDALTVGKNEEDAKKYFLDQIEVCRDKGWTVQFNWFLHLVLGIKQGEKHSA
PI3K β, sequence (P42338 whole entry): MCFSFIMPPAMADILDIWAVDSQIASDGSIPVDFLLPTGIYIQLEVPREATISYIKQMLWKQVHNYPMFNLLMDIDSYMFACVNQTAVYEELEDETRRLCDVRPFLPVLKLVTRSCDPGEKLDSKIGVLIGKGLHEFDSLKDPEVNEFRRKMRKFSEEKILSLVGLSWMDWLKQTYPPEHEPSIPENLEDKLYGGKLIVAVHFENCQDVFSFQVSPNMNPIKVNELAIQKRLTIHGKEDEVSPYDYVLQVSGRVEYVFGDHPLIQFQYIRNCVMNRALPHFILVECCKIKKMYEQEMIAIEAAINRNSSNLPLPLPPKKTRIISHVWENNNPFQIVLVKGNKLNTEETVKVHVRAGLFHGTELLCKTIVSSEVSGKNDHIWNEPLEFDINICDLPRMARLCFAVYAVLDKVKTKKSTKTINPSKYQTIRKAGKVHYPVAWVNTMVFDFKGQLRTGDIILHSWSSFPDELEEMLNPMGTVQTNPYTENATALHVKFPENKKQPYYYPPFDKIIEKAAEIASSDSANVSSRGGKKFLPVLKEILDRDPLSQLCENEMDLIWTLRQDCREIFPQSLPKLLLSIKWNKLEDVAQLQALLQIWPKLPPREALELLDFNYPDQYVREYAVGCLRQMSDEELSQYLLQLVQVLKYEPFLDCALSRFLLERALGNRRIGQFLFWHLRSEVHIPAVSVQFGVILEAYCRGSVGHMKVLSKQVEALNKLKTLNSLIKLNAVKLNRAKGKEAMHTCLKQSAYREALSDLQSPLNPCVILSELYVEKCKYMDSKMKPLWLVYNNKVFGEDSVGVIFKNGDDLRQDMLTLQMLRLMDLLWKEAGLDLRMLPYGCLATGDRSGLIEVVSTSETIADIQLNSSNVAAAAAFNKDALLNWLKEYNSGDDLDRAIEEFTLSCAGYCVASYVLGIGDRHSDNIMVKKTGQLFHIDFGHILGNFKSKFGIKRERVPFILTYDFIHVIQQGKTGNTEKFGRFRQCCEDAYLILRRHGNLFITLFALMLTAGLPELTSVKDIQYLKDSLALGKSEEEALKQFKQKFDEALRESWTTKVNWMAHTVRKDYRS
PI3K β, sequence (P27986 whole entry partner): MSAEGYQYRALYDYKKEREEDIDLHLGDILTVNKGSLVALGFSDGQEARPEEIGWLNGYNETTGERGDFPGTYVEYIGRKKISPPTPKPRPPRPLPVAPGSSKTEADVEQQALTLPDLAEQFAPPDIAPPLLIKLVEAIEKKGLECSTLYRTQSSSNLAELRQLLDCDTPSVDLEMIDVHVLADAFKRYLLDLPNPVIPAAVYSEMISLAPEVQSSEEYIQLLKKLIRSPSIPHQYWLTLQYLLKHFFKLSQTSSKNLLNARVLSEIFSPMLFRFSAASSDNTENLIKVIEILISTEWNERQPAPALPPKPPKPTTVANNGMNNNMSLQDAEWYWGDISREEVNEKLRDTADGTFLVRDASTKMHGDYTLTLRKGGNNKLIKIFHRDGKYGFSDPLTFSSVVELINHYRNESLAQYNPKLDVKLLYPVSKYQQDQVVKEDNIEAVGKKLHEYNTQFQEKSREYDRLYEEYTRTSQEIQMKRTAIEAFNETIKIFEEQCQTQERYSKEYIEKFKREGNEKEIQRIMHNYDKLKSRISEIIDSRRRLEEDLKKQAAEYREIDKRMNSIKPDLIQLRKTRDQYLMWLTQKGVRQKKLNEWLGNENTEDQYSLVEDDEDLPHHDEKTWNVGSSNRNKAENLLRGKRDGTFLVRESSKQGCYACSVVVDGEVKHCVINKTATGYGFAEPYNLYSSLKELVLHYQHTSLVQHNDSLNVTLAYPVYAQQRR
PI3K α, sequence (P42336 whole entry): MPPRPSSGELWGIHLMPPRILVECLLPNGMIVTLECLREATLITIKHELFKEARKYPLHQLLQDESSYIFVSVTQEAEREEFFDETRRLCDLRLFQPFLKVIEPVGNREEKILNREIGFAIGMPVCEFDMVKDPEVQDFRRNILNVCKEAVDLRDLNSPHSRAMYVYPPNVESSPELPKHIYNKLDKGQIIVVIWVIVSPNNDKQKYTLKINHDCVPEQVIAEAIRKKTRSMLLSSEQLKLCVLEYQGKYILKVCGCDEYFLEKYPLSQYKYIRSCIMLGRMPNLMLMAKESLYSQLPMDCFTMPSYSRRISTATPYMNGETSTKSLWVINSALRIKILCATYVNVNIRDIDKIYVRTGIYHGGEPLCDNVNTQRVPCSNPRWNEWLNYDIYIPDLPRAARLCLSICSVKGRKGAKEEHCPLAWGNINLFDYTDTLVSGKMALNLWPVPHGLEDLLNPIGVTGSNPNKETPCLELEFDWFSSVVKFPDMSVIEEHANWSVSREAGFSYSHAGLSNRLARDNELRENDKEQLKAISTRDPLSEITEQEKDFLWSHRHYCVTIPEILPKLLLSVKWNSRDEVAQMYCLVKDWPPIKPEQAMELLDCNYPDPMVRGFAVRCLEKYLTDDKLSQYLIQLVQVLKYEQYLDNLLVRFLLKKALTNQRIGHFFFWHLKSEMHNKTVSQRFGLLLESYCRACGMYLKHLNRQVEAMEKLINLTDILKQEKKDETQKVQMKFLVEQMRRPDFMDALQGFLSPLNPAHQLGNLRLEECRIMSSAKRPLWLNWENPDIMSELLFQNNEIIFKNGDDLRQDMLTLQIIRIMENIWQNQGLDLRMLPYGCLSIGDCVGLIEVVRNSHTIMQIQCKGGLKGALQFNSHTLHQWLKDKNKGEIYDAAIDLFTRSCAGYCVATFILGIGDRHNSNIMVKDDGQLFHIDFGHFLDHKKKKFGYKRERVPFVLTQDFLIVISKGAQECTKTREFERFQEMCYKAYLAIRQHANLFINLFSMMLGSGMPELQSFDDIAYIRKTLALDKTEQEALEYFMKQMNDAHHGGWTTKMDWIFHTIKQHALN
PI3K α, sequence (P27986 whole entry partner): as the sequence (P27986 whole entry partner) above
PI3K δ, sequence (O00329 whole entry): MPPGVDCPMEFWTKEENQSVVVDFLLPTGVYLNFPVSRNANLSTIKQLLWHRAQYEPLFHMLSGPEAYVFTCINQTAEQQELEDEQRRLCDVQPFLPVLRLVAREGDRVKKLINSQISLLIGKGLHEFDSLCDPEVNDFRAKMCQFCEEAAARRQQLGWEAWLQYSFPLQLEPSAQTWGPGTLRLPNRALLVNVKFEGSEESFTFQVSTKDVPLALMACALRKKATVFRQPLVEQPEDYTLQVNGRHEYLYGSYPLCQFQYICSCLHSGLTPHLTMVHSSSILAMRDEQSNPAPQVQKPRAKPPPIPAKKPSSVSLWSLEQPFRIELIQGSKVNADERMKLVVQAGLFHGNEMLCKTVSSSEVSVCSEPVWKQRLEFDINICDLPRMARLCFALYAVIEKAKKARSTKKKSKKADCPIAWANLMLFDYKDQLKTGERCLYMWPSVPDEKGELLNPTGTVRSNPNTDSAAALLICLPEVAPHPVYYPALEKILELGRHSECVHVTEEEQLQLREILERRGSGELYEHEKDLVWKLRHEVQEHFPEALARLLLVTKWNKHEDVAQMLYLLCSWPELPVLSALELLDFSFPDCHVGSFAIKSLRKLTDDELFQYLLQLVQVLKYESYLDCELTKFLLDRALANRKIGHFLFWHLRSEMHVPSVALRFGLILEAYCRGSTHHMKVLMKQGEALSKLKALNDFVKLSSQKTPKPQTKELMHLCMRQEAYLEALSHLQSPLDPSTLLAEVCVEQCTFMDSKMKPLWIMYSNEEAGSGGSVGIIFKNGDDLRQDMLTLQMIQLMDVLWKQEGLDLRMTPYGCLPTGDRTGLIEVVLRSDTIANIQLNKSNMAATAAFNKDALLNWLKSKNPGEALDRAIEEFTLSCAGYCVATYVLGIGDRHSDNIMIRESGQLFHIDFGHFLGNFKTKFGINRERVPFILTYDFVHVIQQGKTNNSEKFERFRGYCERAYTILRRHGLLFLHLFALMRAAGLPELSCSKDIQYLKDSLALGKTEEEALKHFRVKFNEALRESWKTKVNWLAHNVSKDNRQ
PI3K δ, sequence (P27986 whole entry partner): as the sequence (P27986 whole entry partner) above
Protocol for PI3K γ: An exemplary system is PI 3-Kinase (human) HTRF™ Assay from Upstate. […] Briefly, the assay is a time resolved FRET assay that indirectly measures PIP3 product formed by the activity of a PI3-K. The kinase reaction is performed in a microtitre plate (e.g., a 384 well microtitre plate). The total reaction volume is approximately 20 ul per well. In the first step, each well receives 2 ul of test compound in 20% dimethylsulphoxide resulting in a 2% DMSO final concentration. Next, approximately 14.5 ul of a kinase/PIP2 mixture (diluted in 1× reaction buffer) is added per well for a final concentration of 0.25-0.3 ug/ml kinase and 10 μM PIP2. The plate is sealed and incubated for 15 minutes at room temperature. To start the reaction, 3.5 ul of ATP (diluted in 1× reaction buffer) is added per well for a final concentration of 10 μM ATP. The plate is sealed and incubated for 1 hour at room temperature. The reaction is stopped by adding 5 ul of Stop Solution per well and then 5 ul of Detection Mix is added per well. The plate is sealed, incubated for 1 hour at room temperature, and then read on an appropriate plate reader. Data is analyzed and IC50s are generated using GraphPad Prism 5. For PI3K α, β, δ, and γ, the nM concentration of inhibitor to reach IC50 is provided.

For `COC(=O)N1CCN(c2cnc3ccc(-c4ccc5oc(N)nc5c4)cc3n2)CC1`, the IC50 against PI3K α is < 0.1 µM; at PI3K β it was < 1 µM; against PI3K δ, < 10 µM; at PI3K γ, < 0.1 µM.
As for `Cn1c(N2CCOCC2)nc2cc(-c3ccc4oc(N)nc4c3)ccc2c1=O`, the IC50 was < 1 µM at PI3K α, > 10 µM against PI3K β, > 10 µM against PI3K δ and > 10 µM on PI3K γ.
In the case of `CC(C)N1CCN(C2CN(c3cnc4ccc(-c5ccc6oc(N)nc6c5)nc4n3)C2)CC1`, the IC50 against PI3K α is < 10 µM; against PI3K β, > 10 µM; at PI3K δ, > 10 µM; on PI3K γ it was > 10 µM.
Regarding `Nc1nc2cc(-c3ccc4ncc(-c5ccccn5)nc4c3)ccc2o1`, the IC50 is < 1 µM against PI3K α, < 10 µM against PI3K β, > 10 µM against PI3K δ and < 0.1 µM at PI3K γ.
Take `Nc1nc2cc(-c3ccc4ncc(C(=O)N5CCOCC5)n4n3)ccc2o1`: the IC50 against PI3K α is < 1 µM; against PI3K β, < 10 µM; on PI3K δ, > 10 µM; at PI3K γ, < 1 µM.
In the case of `Nc1nc2cc(-c3ccc4ncc(C(=O)N5CCS(=O)(=O)CC5)n4c3)ccc2o1`, the IC50 against PI3K α is < 1 µM; against PI3K β it was > 10 µM; at PI3K δ, > 10 µM; at PI3K γ, < 10 µM.
In the case of `CCn1cnc2ccc(-c3ccc4oc(N)nc4c3)cc2c1=O`, the IC50 at PI3K α is < 0.1 µM; against PI3K β it was < 10 µM; against PI3K δ it was < 10 µM; on PI3K γ, < 0.1 µM.
`Nc1nc2cc(-c3ccc4ncc(N5CCNC(=O)C5)nc4n3)ccc2o1`: the half-maximal inhibitory concentration (IC50) on PI3K α is < 0.1 µM; on PI3K β it was < 1 µM; on PI3K δ, < 10 µM; on PI3K γ, < 0.1 µM.
With `CC(=O)NC1CCN(C(=O)c2cnc3ccc(-c4ccc5oc(N)nc5c4)cn23)CC1`, the IC50 is < 1 µM on PI3K α, < 10 µM against PI3K β, < 10 µM against PI3K δ and < 10 µM on PI3K γ.
For the molecule `Nc1nc2cc(-c3ccc4ncc(N5CC(N6C7CCC6COC7)C5)cc4n3)ccc2o1`, the IC50 against PI3K α is < 0.1 µM; at PI3K β, > 10 µM; against PI3K δ, < 10 µM; on PI3K γ, < 1 µM.
Take `Nc1nc2cc(-c3ccc4ncc(N5CCC(O)CC5)nc4c3)ccc2o1`: the IC50 against PI3K α is < 0.1 µM; against PI3K β it was < 10 µM; against PI3K δ, < 1 µM; on PI3K γ it was < 1 µM.
As for `CC(=O)N1CCN(c2cnc3ccc(-c4ccc5oc(N)nc5c4)cc3n2)CC1`, the IC50 on PI3K α, against PI3K β, on PI3K δ and on PI3K γ was < 0.1 µM throughout.
Take `CN1CCN(c2cnc3ccc(-c4ccc5sc(N)nc5c4)cc3n2)CC1`: the IC50 is < 1 µM against PI3K α, < 0.1 µM against PI3K β, > 10 µM at PI3K δ and < 10 µM at PI3K γ.
In the case of `Nc1noc2ccc(-c3ccc4nccc(-c5ccncc5)c4c3)cc12` [Compound 18], the IC50 against PI3K α is < 10 µM; against PI3K β it was > 10 µM; against PI3K δ, > 10 µM; on PI3K γ, < 10 µM.
With `Nc1nc2cc(-c3ccc4ncc(N5CC(N6CCN(C7CC7)CC6)C5)cc4n3)ccc2o1`, the IC50 against PI3K α was < 0.1 µM; at PI3K β, < 10 µM; against PI3K δ, < 10 µM; on PI3K γ, < 1 µM.
On to `Nc1nc2cc(-c3ccc4ncc(N5CCOCC5)nc4c3)ccc2s1`, for which the IC50 on PI3K α was < 0.1 µM; on PI3K β, < 1 µM; against PI3K δ it was > 10 µM; at PI3K γ, < 1 µM.
For the molecule `CC1CN(c2cnc3ccc(-c4ccc5oc(N)nc5c4)cc3n2)CCN1` (centres unmarked), the IC50 against PI3K α was < 0.1 µM; against PI3K β, < 0.1 µM; against PI3K δ, < 10 µM; at PI3K γ, < 1 µM.
On to `Nc1nc2cc(-c3ccc4ncc(C(=O)N5CCOCC5)cc4c3)ccc2o1`, for which the IC50 at PI3K α is < 10 µM; against PI3K β it was > 10 µM; against PI3K δ, > 10 µM; at PI3K γ, > 10 µM.
Turning to `Nc1nc2cc(-c3cnc4ccc(N5CCOCC5)nc4c3)ccc2o1`, the IC50 on PI3K α is < 10 µM; against PI3K β, > 10 µM; against PI3K δ, > 10 µM; at PI3K γ, < 10 µM.
Regarding `Nc1nc2cc(-c3ccc4ncc(C(=O)N5CCC(O)CC5)n4c3)ccc2o1`, the concentration for half-maximal inhibition (IC50) was < 1 µM on PI3K α, > 10 µM against PI3K β, > 10 µM at PI3K δ and < 10 µM at PI3K γ.
On to `NCC(=O)N1CCN(c2cnc3ccc(-c4ccc5oc(N)nc5c4)cc3n2)CC1`, for which the IC50 on PI3K α is < 0.1 µM; at PI3K β it was < 1 µM; at PI3K δ, < 1 µM; on PI3K γ it was < 1 µM.
In the case of `CC(C)N1CCN(c2cnc3ccc(-c4ccc5oc(N)nc5c4)nc3n2)CC1`, the IC50 was < 0.1 µM at PI3K α, < 1 µM against PI3K β, < 10 µM at PI3K δ and < 1 µM at PI3K γ.
Consider `CC(=O)N1CCN(C(=O)c2cnc3ccc(-c4ccc5oc(N)nc5c4)cn23)CC1`, for which the IC50 on PI3K α was < 0.1 µM; against PI3K β it was > 10 µM; on PI3K δ, > 10 µM; at PI3K γ, < 1 µM.
With `Nc1nc2cc(-c3ccc4ncc(-c5ccc(N6CCOCC6)nc5)nc4c3)ccc2o1`, the IC50 at PI3K α is < 10 µM; against PI3K β, > 10 µM; against PI3K δ, > 10 µM; on PI3K γ, > 10 µM.
For the molecule `C[C@@H]1CN(c2cnc3ccc(-c4ccc5oc(N)nc5c4)cc3n2)C[C@H](C)O1`, the IC50 against PI3K α is < 1 µM; at PI3K β it was > 10 µM; on PI3K δ it was > 10 µM; on PI3K γ, < 10 µM.
For `Nc1nc2cc(-c3cc4nccc(-c5ccncc5)c4s3)ccc2o1` [Compound 14], the IC50 against PI3K α is < 10 µM; at PI3K β, > 10 µM; at PI3K δ, > 10 µM; at PI3K γ, < 10 µM.
As to `CNC(=O)N1CCN(c2cnc3ccc(-c4ccc5oc(N)nc5c4)cc3n2)CC1`, the IC50 is < 0.1 µM against PI3K α, < 1 µM against PI3K β, < 10 µM against PI3K δ and < 0.1 µM at PI3K γ.
As for `CN1CCN(C(=O)c2cnc3ccc(-c4ccc5nc(N)oc5c4)cn23)CC1`, the IC50 is < 1 µM on PI3K α, < 10 µM against PI3K β, > 10 µM against PI3K δ and > 10 µM at PI3K γ.
For `C[C@H](N)C(=O)N1CCN(c2cnc3ccc(-c4ccc5oc(N)nc5c4)nc3n2)CC1`, the IC50 against PI3K α, against PI3K β, on PI3K δ and at PI3K γ was < 0.1 µM in each case.
In the case of `Nc1nc2cc(-c3ccc4ncc(-c5ccccc5)nc4c3)ccc2o1`, the IC50 against PI3K α is < 1 µM; against PI3K β, > 10 µM; against PI3K δ, > 10 µM; at PI3K γ, > 10 µM.
For the molecule `Nc1nc2cc(-c3ccc4ncnc(NC5CCN(C(=O)C6CC6)CC5)c4c3)ccc2o1`, the IC50 against PI3K α was < 0.1 µM; against PI3K β, < 10 µM; against PI3K δ, < 0.1 µM; at PI3K γ, < 0.1 µM.
On to `CN1CCCN(c2cnc3ccc(-c4ccc5oc(N)nc5c4)cc3n2)CC1`, for which the IC50 was < 1 µM against PI3K α, < 1 µM on PI3K β, > 10 µM on PI3K δ and < 10 µM on PI3K γ.
Consider `Nc1nc2cc(-c3ccc4ncc(-c5cccnc5)nc4n3)ccc2o1`, for which the IC50 against PI3K α was < 1 µM; against PI3K β it was < 10 µM; at PI3K δ, > 10 µM; on PI3K γ, < 1 µM.
As to `Cc1cn(-c2cnc3ccc(-c4ccc5oc(N)nc5c4)cc3n2)cn1`, the IC50 on PI3K α was < 0.1 µM; against PI3K β it was > 10 µM; on PI3K δ it was > 10 µM; on PI3K γ, < 1 µM.
As for `CN1CCN(C(=O)c2cnc3ccc(-c4ccc5oc(N)nc5c4)cc3n2)CC1`, the IC50 was < 10 µM against PI3K α, > 10 µM on PI3K β, > 10 µM at PI3K δ and > 10 µM on PI3K γ.
With `CC(C)(C)N1CCN(c2cnc3ccc(-c4ccc5oc(N)nc5c4)cc3n2)CC1`, the IC50 was < 0.1 µM against PI3K α, < 1 µM against PI3K β, < 1 µM against PI3K δ and < 1 µM on PI3K γ.
As to `CS(=O)(=O)N1CCN(c2cnc3ccc(-c4ccc5oc(N)nc5c4)cc3n2)CC1`, the IC50 against PI3K α was < 0.1 µM; at PI3K β, < 1 µM; at PI3K δ, < 1 µM; at PI3K γ, < 0.1 µM.
Take `CCOC(=O)N1CCN(c2cnc3ccc(-c4ccc5oc(N)nc5c4)nc3n2)CC1`: the IC50 is < 0.1 µM against PI3K α, < 1 µM against PI3K β, < 1 µM on PI3K δ and < 1 µM at PI3K γ.
In the case of `CN(C)C1CCN(c2cnc3ccc(-c4ccc5oc(N)nc5c4)cc3n2)CC1`, the IC50 is < 0.1 µM at PI3K α, < 0.1 µM at PI3K β, < 0.1 µM at PI3K δ and < 1 µM at PI3K γ.
Take `CS(=O)(=O)CCN1CCC(Nc2cnc3ccc(-c4ccc5oc(N)nc5c4)cc3n2)CC1`: the IC50 on PI3K α was < 0.1 µM; at PI3K β, < 10 µM; on PI3K δ it was < 1 µM; at PI3K γ it was < 0.1 µM.
On to `C[C@H]1CN(C2CN(c3cnc4ccc(-c5ccc6oc(N)nc6c5)nc4n3)C2)CCN1C`, for which the IC50 was < 0.1 µM on PI3K α, > 10 µM on PI3K β, < 10 µM against PI3K δ and > 10 µM on PI3K γ.
In the case of `Nc1nc2cc(-c3ccc4ncc(N5CCN(CCO)CC5)nc4c3)ccc2o1`, the IC50 is < 0.1 µM at PI3K α, < 0.1 µM on PI3K β, < 10 µM at PI3K δ and < 1 µM at PI3K γ.
Take `CN1CCN(C(=O)c2cnc3cnc(-c4ccc5oc(N)nc5c4)cn23)CC1`: the IC50 against PI3K α was < 10 µM; at PI3K β, > 10 µM; on PI3K δ it was > 10 µM; on PI3K γ it was > 10 µM.
Take `Nc1nc2cc(-c3ccc4ncc(C(=O)N5CCN(CC6CC6)CC5)n4c3)ccc2o1`: the IC50 against PI3K α is < 1 µM; against PI3K β, < 10 µM; against PI3K δ it was < 10 µM; at PI3K γ, < 10 µM.

By IC50 is commonly meant the point on the concentration scale where inhibition reaches its midpoint.
